Patent US4599352A, “Antineoplastic platinum (IV) complexes and compositions” (priority 1984, dated 1986)

Columns and labels:
IP L1210 = experiment: Activity against IP-implanted L1210 leukemia sensitive to cisplatin, 30 day test (Table 3); type: in vivo, Female CD2Fl mice
Description: (§1) Biological properties of the compounds of the present invention were determined following the protocol described in Cancer Chemotherapy Reports, Vol. 3, No. 3, 1972 which report is incorporated herein by reference.
Other known mechanisms of resistance for other classes of agents, such as gene amplification or target enzyme change or amplication, also need to be explored. The experiments summarized in Table 3 were conducted at the same time against both sublines using the same drug preparations. […] These experiments were repeated in a second laboratory as documented in Table 4. However, in these experiments the animals were held for 60 rather than 30 days to evaluate whether or not long-term survivors are produced after drug treatment in a more challenging setting.
(§2) This experiment (A8-00005 3LE31) was conducted at the Southern Research Institute, Birmingham, Ala. under the supervision of Dr. Daniel Griswold. The protocols were the same as those published previously (Geran et al., Cancer Chemotherapy Reports 3: No. 2, 1972 [Attachment 11]). 10^5 cells were implanted intraperitoneally in CD2Fl male mice on Day 0. Drug treatments were given intraperitoneally as single injections at the doses indicated on Days 1, 5 and 9 after tumor implantation. The diluent was saline except for NSC-271674 where 5% sodium bicarbonate was used. All drugs were prepared fresh on the day of injection, and all were administered in solution. Median survival times for both control and drug-treated mice were determined and expressed as a percentage (% T/C). Body weights were determined on Day 5 and expressed as a weight difference (body weight of the drug-treated animals minus that of the control animals in grams) (T-C). The diluent control animals lived a median of 8.4 days and gained 1.9 grams by Day 5 in this experiment. All animals, including Day 30 survivors, were used in the calculation of median survival times. The log10 change in tumor burden refers to the net log change in viable tumor cell population at the end of therapy (Rx) as compared to the start of therapy; e.g., a […] means that there was a […] and a 3 log change means there was a 1000-fold increase in tumor burden at the end of therapy. The tumor burden at the start of therapy was about 6.1×10^5 cells in this experiment.
These experiments (A8-00008 3LE31 and A8-00001 3DP31) were conducted concurrently at the Southern Research Institute, Birmingham, Ala. under the supervision of Dr. Daniel Griswold. See Table 4 for experimental details. The diluent control animals bearing L1210 leukemia lived a median of 8.6 days and gained 1.3 grams by Day 5. […] Female CD2Fl mice were used for these experiments.

IP L1210 leukemia = experiment: Mouse optimal (highest tolerated) dose, IP L1210 leukemia, Days 1, 5 and 9 schedule (Table 7); type: in vivo
From the text: *IP L1210 leukemia, Days 1, 5 and 9 schedule. Highest tolerated dose in a
least 2 of 3 experiments (i.e,. animal weight difference (testcontrol)

[1] = test system: IP-Implanted L1210 Leukemia; experiment: Dose-response against IP-implanted L1210 leukemia, IP treatment Days 1, 5 and 9, 30-day test (Table 2); type: in vivo, CD2Fl male mice
Description: as §1, §2

[2] = test system: SC Implanted L1210 Leukemia; experiment: Activity against SC implanted L1210 leukemia following intravenous administration, once daily Days 1-5 (Table 5); type: in vivo, CD2Fl male mice
Description: as §1
In another type of experiment the same platinum complexes were directly compared against the SC implanted L1210 following intravenous administration (Table 5).
This experiment (A8-00004 3LE32) was conducted at the Southern Research Institute, Birmingham, Ala. under the supervision of Dr. Daniel Griswold. The protocols were the same as those published previously (Attachment 11). 10^6 cells were implanted subcutaneously in CD2Fl male mice on Day 0. Drug treatments were given intravenously once daily at the doses indicated on Days 1-5 after tumor implantation. The dosage range tested included the highest and lowest doses indicated in the Table as well as intermediate values which were determined by multiplying each dose in turn by 0.5 starting with the highest dose. The diluent was saline except for NSC-271674 for which 5% sodium bicarbonate was used. All drugs were prepared fresh on the day of injection, and all were administered in solution. Median survival times for both control and drug-treated mice were determined and expressed as a percentage (% T/C). Body weights were determined on Day 5 and expressed as a weight difference (body weight of the drug-treated animals minus that of the control animals in grams) (T-C).

Compound: N.N.[Cl][Pt][Cl] [Cisplatin, cis-diamminedichloroplatinum (II), reference compound]
- 30 Day Survivors/Total (IP L1210; 1.25 mg/kg/dose): 0/6
- Approx. Log10 Change in Tumor Burden at End of RX (IP L1210; 1.25 mg/kg/dose): ~3.0 log10
- Median % T/C (IP L1210; 1.25 mg/kg/dose): 116%
- 30 Day Survivors/Total (IP L1210; 5 mg/kg/dose): 0/6
- Approx. Log10 Change in Tumor Burden at End of RX (IP L1210; 5 mg/kg/dose): ~2.2 log10
- Median % T/C (IP L1210; 5 mg/kg/dose): 162%
- 30 Day Survivors/Total (IP L1210; 10 mg/kg/dose): 3/6
- Approx. Log10 Change in Tumor Burden at End of RX (IP L1210; 10 mg/kg/dose): ~-5.9 log10
- Median % T/C (IP L1210; 10 mg/kg/dose): 348%
- 30 Day Survivors/Total (IP L1210; 20 mg/kg/dose): 0/6
- Approx. Log10 Change in Tumor Burden at End of RX (IP L1210; 20 mg/kg/dose): ~2.4 log10
- Median % T/C (IP L1210; 20 mg/kg/dose): 148%
- Mouse Optimal Dose (highest tolerated dose in at least 2 of 3 experiments) (IP L1210 leukemia): 10 mg/kg
- 30-Day Survivors/Total ([1]; 1.25 mg/kg/dose IP): 0/6
- Approx. Log10 Change in Tumor Burden at End of Rx ([1]; 1.25 mg/kg/dose IP): ~2.9 log10
- Body Weight Difference ([1]; 1.25 mg/kg/dose IP): -1.0 Grams
- Median % T/C ([1]; 1.25 mg/kg/dose IP): 123%
- 30-Day Survivors/Total ([1]; 5 mg/kg/dose IP): 0/6
- Approx. Log10 Change in Tumor Burden at End of Rx ([1]; 5 mg/kg/dose IP): ~2.4 log10
- Body Weight Difference ([1]; 5 mg/kg/dose IP): -1.4 Grams
- Median % T/C ([1]; 5 mg/kg/dose IP): 152%
- 30-Day Survivors/Total ([1]; 10 mg/kg/dose IP): 0/6
- Approx. Log10 Change in Tumor Burden at End of Rx ([1]; 10 mg/kg/dose IP): ~1.9 log10
- Body Weight Difference ([1]; 10 mg/kg/dose IP): -1.3 Grams
- Median % T/C ([1]; 10 mg/kg/dose IP): 166%
- 30-Day Survivors/Total ([1]; 20 mg/kg/dose IP): 3/6
- Approx. Log10 Change in Tumor Burden at End of Rx ([1]; 20 mg/kg/dose IP): ~-5.7 log10
- Body Weight Difference ([1]; 20 mg/kg/dose IP): -5.0 Grams
- Median % T/C ([1]; 20 mg/kg/dose IP): 357%
- Log reduction in tumor cell burden at the end of therapy ([1]; best dose): -5.7 log10
- Optimal dose (dose producing best therapeutic response) ([1]; day 1, 5 and 9 schedule): 20 mg/kg/injection
- Body Weight Difference ([2]; 5 mg/kg/inj IV): -5.7 Grams
- Median % T/C ([2]; 5 mg/kg/inj IV): 138%
- Median Survival Time ([2]; 5 mg/kg/inj IV): 14.3 days
- Optimal Dose ([2]; IV once daily Days 1-5): 5 mg/kg/inj
